# From patent US5965088A, “Method for providing rapid disinfection of contact lenses” (priority 1997, dated 1999)
# Where two headings read alike, the source gives them in different places.
# What was measured:
# [1] = test system: Staphylococcus aureus (ATCC 6538); experiment: Antimicrobial efficacy (stand-alone log reduction), S. aureus; format: cell-based; conditions: for log reduction at 4 ppm / log reduction at 1 ppm / log reduction at 2 ppm / log reduction at 3 ppm / log reduction at 5 ppm / log reduction at 4 µg/mL: Staphylococcus aureus; for log reduction at 4 µg/mL: 4.0 ppm alexidine in ReNu MPS
# Protocol: (§1) This Example illustrates the microbiocidal efficacy of solutions according to the present invention. The antimicrobial efficacy of each of various compositions for the chemical disinfection of contact lenses was evaluated. Microbial challenge inoculums were prepared using Pseudomonas aeruginosa (ATCC 9027), Staphylococcus aureus (ATCC 6538), Serratia marcescens (ATCC 13880), Candida albicans (ATCC 10231), and Fusarium solani (ATCC 36031). The test organisms were cultured on appropriate agar and the cultures were harvested using sterile DPBST (Dulbecco's Phosphate Buffered Saline plus 0.05% w/v polysorbate 80) or a suitable diluent and transferred to a suitable vessel. Spore suspensions were filtered through sterile glass wool to remove hyphal fragments. Serratia marcescens, as appropriate, was filtered (eg., through a 1.2 μ filter) to clarify the suspension. After harvesting, the suspension was centrifuged at no more than 5000× g for a maximum of 30 minutes at 20-25° C. The supernatant was poured off and resuspended in DPBST or other suitable diluent. The suspension was centrifuged a second time, and resuspended in DPBST or other suitable diluent. All challenge bacterial and fungal cell suspensions were adjusted with DPBST or other suitable diluent to 1×10^7 -10^8 cfu/mL. The appropriate cell concentration may be estimated by measuring the turbidity of the suspension, for example using a spectrophotometer at a preselected wavelength, for example 490 nm. One tube was prepared containing a minimum of 10 mL of test solution per challenge organism. Each tube of the solution to be tested was inoculated with a suspension of the test organism sufficient to provide a final count of 1.0×10^5 -10^6 cfu/mL, the volume of the inoculum not exceeding 1% of the sample volume. Dispersion of the inoculum was ensured by vortexing the sample for at least 15 seconds. The inoculated product was stored at 10-25° C. Aliquots in the amount of 1.0 mL were taken of the inoculated product for determination of viable counts after certain time periods of disinfection. The time points for the bacteria were 25, 50, 75, and 100% of the minimum disinfection time. Yeast and mold were tested at an additional timepoint of at least 400% of the minimum disinfection time. The suspension was mixed well by vortexing vigorously for at least 5 second. The 1.0 mL aliquots removed at the specified time intervals were subjected to a suitable series of decimal dilutions in validated neutralizing media. The suspensions were mixed vigorously and incubated for a suitable period of time to allow for neutralization of the microbial agent. The viable count of organisms was determined in appropriate dilutions by preparation of triplicate plates of trypticase soy (TSA) agar for bacteria and Sabouraud dextrose agar (SDA) for mold and yeast. The bacterial recovery plates were incubated at 30-35° C. for 2-4 days. The yeast was incubated at 20-30° C. for 2-4 days and mold recovery plates at 20-25° C. for 3-7 days. The average number of colony forming units was determined on countable plates. Countable plates refer to 30-300 cfu/plates for bacteria and yeast, and 8 to 80 cfu/plate for mold except when colonies are observed only for the 10^0 or 10^-1 dilution plates. The microbial reduction was then calculated at the specified time points. […] Following inoculation in a validated neutralizing broth and incubation for an appropriate period of time, the inoculum control must be between 1.0×10^5 -1.0×10^6 cfu/mL
# (§2) The solutions were evaluated based on the performance requirement referred to as the "Stand-Alone Procedure for Disinfecting Products" (hereafter the "stand-alone test") and is based on the Disinfection Efficacy Testing for contact lens care products under the Draft Premarket Notification (510(k)) Guidance Document For Contact Lens Care Products dated Apr. 1, 1996, prepared by the U.S. Food and Drug Administration, Division of Ophthalmic Devices. […]
# [2] = test system: Fusarium solani (ATCC 36031); experiment: Antimicrobial efficacy (stand-alone log reduction), F. solani; format: cell-based; conditions: for log reduction at 4 µg/mL: 4.0 ppm alexidine in ReNu MPS
# Protocol: as §1, §2
compound,measurement,setting,value
"CCCCC(CC)CNC(=N)NC(=N)NCCCCCCNC(=N)NC(=N)NCC(CC)CCCC.Cl.Cl (stereo not shown) [Alexidine.2HCl, 1,1 '-hexamethylenebis(5-(2-ethylhexyl)-biguanide) dihydrochloride]","stand-alone test, 15 minute time point","[1]; 4.0 ppm, Example 6, 15 min",the 15 minute time point failed
same,log reduction at 4 ppm,"[1]; ATCC6538, 2.5 min",2
same,log reduction at 4 ppm,"[1]; ATCC6538, 2.5 min, 4.0 ppm, aged 18 months, Exp. 1, 2.5 min, read-out: Log Reduction",2.2
same,log reduction at 4 ppm,"[1]; ATCC6538, 2.5 min, 4.0 ppm, aged 18 months, Exp. 2, 2.5 min, read-out: Log Reduction",1.6
same,log reduction at 1 ppm,"[1]; ATCC6538, 5 min, 1.0 ppm, read-out: Log Reduction at 5 Minutes",0.7
same,log reduction at 2 ppm,"[1]; ATCC6538, 5 min, 2.0 ppm, read-out: Log Reduction at 5 Minutes",1.6
same,log reduction at 3 ppm,"[1]; ATCC6538, 5 min, 3.0 ppm, read-out: Log Reduction at 5 Minutes",2.6
same,log reduction at 4 ppm,"[1]; ATCC6538, 5 min, 4.0 ppm, aged 18 months, Exp. 1, 5.0 min, read-out: Log Reduction",2.7
same,log reduction at 4 ppm,"[1]; ATCC6538, 5 min, 4.0 ppm, aged 18 months, Exp. 2, 5.0 min, read-out: Log Reduction",2
same,log reduction at 4 ppm,"[1]; ATCC6538, 5 min, 4.0 ppm, aged 18 months, Exp. 3, 5.0 min, read-out: Log Reduction",2.8
same,log reduction at 4 ppm,"[1]; ATCC6538, 5 min, 4.0 ppm, read-out: Log Reduction at 5 Minutes",4.8
same,log reduction at 5 ppm,"[1]; ATCC6538, 5 min, 5.0 ppm, read-out: Log Reduction at 5 Minutes",4.8
same,log reduction at 4 ppm,"[1]; ATCC6538, 0.125 h",2.3
same,log reduction at 4 ppm,"[1]; ATCC6538, 0.125 h, 4.0 ppm, aged 18 months, Exp. 1, 7.5 min, read-out: Log Reduction",3.1
same,log reduction at 4 ppm,"[1]; ATCC6538, 0.125 h, 4.0 ppm, aged 18 months, Exp. 3, 7.5 min, read-out: Log Reduction",3.4
same,log reduction at 1 ppm,"[1]; ATCC6538, 10 min, 1.0 ppm, read-out: Log Reduction at 10 Minutes",1
same,log reduction at 2 ppm,"[1]; ATCC6538, 10 min, 2.0 ppm, read-out: Log Reduction at 10 Minutes",2.6
same,log reduction at 3 ppm,"[1]; ATCC6538, 10 min, 3.0 ppm, read-out: Log Reduction at 10 Minutes",4
same,log reduction at 4 ppm,"[1]; ATCC6538, 10 min, 4.0 ppm, aged 18 months, Exp. 1, 10.0 min, read-out: Log Reduction",3.5
same,log reduction at 4 ppm,"[1]; ATCC6538, 10 min, 4.0 ppm, aged 18 months, Exp. 2, 10.0 min, read-out: Log Reduction",2.7
same,log reduction at 4 ppm,"[1]; ATCC6538, 10 min, 4.0 ppm, aged 18 months, Exp. 3, 10.0 min, read-out: Log Reduction",3.9
same,log reduction at 4 ppm,"[1]; ATCC6538, 10 min, 4.0 ppm, read-out: Log Reduction at 10 Minutes",4.8
same,log reduction at 5 ppm,"[1]; ATCC6538, 10 min, 5.0 ppm, read-out: Log Reduction at 10 Minutes",> 4.8
same,log reduction at 4 ppm,"[1]; ATCC6538, 0.25 h, 4.0 ppm, Ex. 6, aged 19 months at 25 °C, 15 min, read-out: Log Reduction",2.5
same,log reduction at 4 ppm,"[1]; ATCC6538, 0.25 h, 4.0 ppm, Ex. 7, different lot aged 18 months, 15 min, read-out: Log Reduction",3.7
same,log reduction at 4 ppm,"[1]; ATCC6538, 0.25 h, 4.0 ppm, Ex. 8, different batch aged 19 months at 25 °C, 15 min, read-out: Log Reduction",3.5
same,log reduction at 4 ppm,"[1]; ATCC6538, 0.5 h, 4.0 ppm, Ex. 6, aged 19 months at 25 °C, 30 min, read-out: Log Reduction",4.4
same,log reduction at 4 ppm,"[1]; ATCC6538, 0.5 h, 4.0 ppm, Ex. 7, different lot aged 18 months, 30 min, read-out: Log Reduction",4.7
same,log reduction at 4 ppm,"[1]; ATCC6538, 0.5 h, 4.0 ppm, Ex. 8, different batch aged 19 months at 25 °C, 30 min, read-out: Log Reduction",> 4.9
same,log reduction at 4 ppm,"[1]; ATCC6538, 0.75 h, 4.0 ppm, Ex. 6, aged 19 months at 25 °C, 45 min, read-out: Log Reduction",> 4.9
same,log reduction at 4 ppm,"[1]; ATCC6538, 0.75 h, 4.0 ppm, Ex. 7, different lot aged 18 months, 45 min, read-out: Log Reduction",> 4.8
same,log reduction at 4 ppm,"[1]; ATCC6538, 0.75 h, 4.0 ppm, Ex. 8, different batch aged 19 months at 25 °C, 45 min, read-out: Log Reduction",> 4.9
same,log reduction at 1 ppm,"[1]; ATCC6538, 1 h, 1 ppm, 1 hr, read-out: Log Reduction",1.6
same,log reduction at 2 ppm,"[1]; ATCC6538, 1 h, 2 ppm, 1 hr, read-out: Log Reduction",4.3
same,log reduction at 3 ppm,"[1]; ATCC6538, 1 h, 3 ppm, 1 hr, read-out: Log Reduction",> 4.8
same,log reduction at 4 µg/mL,"[1]; ATCC6538, 1 h, 1 hr",> 4.9
same,log reduction at 4 ppm,"[1]; ATCC6538, 1 h, 4 ppm, 1 hr, read-out: Log Reduction",> 4.8
same,log reduction at 4 ppm,"[1]; ATCC6538, 1 h, 4.0 ppm, Ex. 6, aged 19 months at 25 °C, 60 min, read-out: Log Reduction",> 4.9
same,log reduction at 4 ppm,"[1]; ATCC6538, 1 h, 4.0 ppm, Ex. 7, different lot aged 18 months, 60 min, read-out: Log Reduction",> 4.8
same,log reduction at 4 ppm,"[1]; ATCC6538, 1 h, 4.0 ppm, Ex. 8, different batch aged 19 months at 25 °C, 60 min, read-out: Log Reduction",> 4.9
same,log reduction at 5 ppm,"[1]; ATCC6538, 1 h, 5 ppm, 1 hr, read-out: Log Reduction",> 4.8
same,log reduction at 4 µg/mL,"[1]; ATCC6538, 2 h, 2 hr",> 4.9
same,log reduction at 4 µg/mL,"[1]; ATCC6538, 3 h, 3 hr",> 4.9
same,log reduction at 4 µg/mL,"[1]; ATCC6538, 4 h, 4 hr",> 4.9
same,log reduction at 4 ppm,"[2]; ATCC36031, 2.5 min, aged 18 months, Exp. 1, 2.5 min",2.5
same,log reduction at 4 ppm,"[2]; ATCC36031, 2.5 min, aged 18 months, Exp. 2, 2.5 min",2.5
same,log reduction at 4 ppm,"[2]; ATCC36031, 2.5 min, aged 18 months, Exp. 3, 2.5 min",2.2
same,log reduction at 4 ppm,"[2]; ATCC36031, 5 min, aged 18 months, Exp. 1, 5.0 min",4.3
same,log reduction at 4 ppm,"[2]; ATCC36031, 5 min, aged 18 months, Exp. 2, 5.0 min",4.1
same,log reduction at 4 ppm,"[2]; ATCC36031, 5 min, aged 18 months, Exp. 3, 5.0 min",2.1
same,log reduction at 4 ppm,"[2]; ATCC36031, 0.125 h, aged 18 months, Exp. 1, 7.5 min",4.6
same,log reduction at 4 ppm,"[2]; ATCC36031, 0.125 h, aged 18 months, Exp. 2, 7.5 min",4.4
same,log reduction at 4 ppm,"[2]; ATCC36031, 0.125 h, aged 18 months, Exp. 3, 7.5 min",2.4
same,log reduction at 4 ppm,"[2]; ATCC36031, 10 min, aged 18 months, Exp. 1, 10.0 min",> 4.6
same,log reduction at 4 ppm,"[2]; ATCC36031, 10 min, aged 18 months, Exp. 2, 10.0 min",4.5
same,log reduction at 4 ppm,"[2]; ATCC36031, 10 min, aged 18 months, Exp. 3, 10.0 min",2.5
same,log reduction at 4 ppm,"[2]; ATCC36031, 0.25 h, Ex. 6, aged 19 months at 25 °C, 15 min",3.4
same,log reduction at 4 ppm,"[2]; ATCC36031, 0.25 h, Ex. 7, different lot aged 18 months, 15 min",2.4
same,log reduction at 4 ppm,"[2]; ATCC36031, 0.25 h, Ex. 8, different batch aged 19 months at 25 °C, 15 min",3.6
same,log reduction at 4 ppm,"[2]; ATCC36031, 0.5 h, Ex. 6, aged 19 months at 25 °C, 30 min",4.3
same,log reduction at 4 ppm,"[2]; ATCC36031, 0.5 h, Ex. 7, different lot aged 18 months, 30 min",> 4.5
same,log reduction at 4 ppm,"[2]; ATCC36031, 0.5 h, Ex. 8, different batch aged 19 months at 25 °C, 30 min",> 4.6
same,log reduction at 4 ppm,"[2]; ATCC36031, 40 min, aged 18 months, Exp. 1, 40.0 min",> 4.6
same,log reduction at 4 ppm,"[2]; ATCC36031, 40 min, aged 18 months, Exp. 2, 40.0 min",> 4.5
same,log reduction at 4 ppm,"[2]; ATCC36031, 40 min, aged 18 months, Exp. 3, 40.0 min",> 4.6
same,log reduction at 4 ppm,"[2]; ATCC36031, 0.75 h, Ex. 6, aged 19 months at 25 °C, 45 min",4.4
same,log reduction at 4 ppm,"[2]; ATCC36031, 0.75 h, Ex. 7, different lot aged 18 months, 45 min",> 4.5
same,log reduction at 4 ppm,"[2]; ATCC36031, 0.75 h, Ex. 8, different batch aged 19 months at 25 °C, 45 min",> 4.6
same,log reduction at 4 µg/mL,"[2]; ATCC36031, 1 h, 1 hr",3.1
same,log reduction at 4 ppm,"[2]; ATCC36031, 1 h, Ex. 6, aged 19 months at 25 °C, 60 min",4.2
same,log reduction at 4 ppm,"[2]; ATCC36031, 1 h, Ex. 7, different lot aged 18 months, 60 min",> 4.5
same,log reduction at 4 ppm,"[2]; ATCC36031, 1 h, Ex. 8, different batch aged 19 months at 25 °C, 60 min",> 4.6
same,log reduction at 4 µg/mL,"[2]; ATCC36031, 2 h, 2 hr",4.1
same,log reduction at 4 µg/mL,"[2]; ATCC36031, 3 h, 3 hr",4.5
same,log reduction at 4 µg/mL,"[2]; ATCC36031, 4 h, 4 hr",4.6
same,log reduction at 4 ppm,"[2]; ATCC36031, 4 h, Ex. 6, aged 19 months at 25 °C, 4 h",> 4.4
same,log reduction at 4 ppm,"[2]; ATCC36031, 4 h, Ex. 7, different lot aged 18 months, 4 hrs",> 4.5
same,log reduction at 4 ppm,"[2]; ATCC36031, 4 h, Ex. 8, different batch aged 19 months at 25 °C, 4 hrs",> 4.6
same,log reduction at 4 µg/mL,"[2]; ATCC36031, 24 h, 24 hr",> 4.6
